According to patent US20050239656A1, “Pyridine compounds or salts thereof and herbicides containing the same” (priority 2002, published 2005):

How the values were obtained:
corn [1] = assay: Test Example 2: soil surface treatment, upland pot test; format: in vivo, Zea mays L.; settings: active ingredient 500 g/ha, observed 20th to 28th day
How it was run: (§1)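 In this pre-emergence upland pot test, a small sprayer delivered the diluted compound formulation (1,500 L/ha water) to the soil surface the day after seeding. Plants were then observed, and control was scored from 0 to 100% some 20–28 days after treatment.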

rice [2] = assay: Test Example 1: foliage treatment, upland pot test; format: in vivo, Oryza sativa L.; settings: crop, active ingredient 500 g/ha, observed 18th to 23rd day, 0 = non-treated, 100 = complete kill
How it was run: (§2)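 Pots of upland field soil were sown and sprayed post-emergence at soybean 0.1–0.4, wheat 1.3–2.4, rice 1.2–2.6 and barnyardgrass 1.3–2.8 leaf stages. Formulations were diluted in water at 500 L/ha with 0.1% (v/v) spreader. Growth control (0 = untreated, 100 = complete kill) was judged by eye 18–23 days later.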

crabgrass [3] = assay: Test Example 2: soil surface treatment, upland pot test; format: in vivo, Digitaria sanguinalis L.; settings: active ingredient 500 g/ha, observed 20th to 28th day
How it was run: as §1

redroot pigweed [4] = assay: as above; format: in vivo, Amaranthus retroflexus L.; settings: active ingredient 500 g/ha, observed 20th to 28th day
How it was run: as §1

soybean [5] = assay: Test Example 1: foliage treatment, upland pot test; format: in vivo, Glycine max Merr.; settings: crop, active ingredient 500 g/ha, observed 18th to 23rd day, 0 = non-treated, 100 = complete kill
How it was run: as §2

prickly sida [6] = assay: Test Example 2: soil surface treatment, upland pot test; format: in vivo, Sida spinosa L.; settings: active ingredient 500 g/ha, observed 20th to 28th day
How it was run: as §1

barnyardgrass [7] = assay: as above; format: in vivo, Echinochloa crus-galli L.; settings: active ingredient 500 g/ha, observed 20th to 28th day
How it was run: as §1

velvetleaf [8] = assay: Test Example 1: foliage treatment, upland pot test; format: in vivo, Abutilon theophrasti MEDIC.; settings: active ingredient 500 g/ha, observed 18th to 23rd day, 0 = non-treated, 100 = complete kill
green foxtail [9] = assay: Test Example 2: soil surface treatment, upland pot test; format: in vivo, Setaria viridis L.; settings: active ingredient 500 g/ha, observed 20th to 28th day
How it was run: as §1

redroot pigweed [10] = assay: Test Example 1: foliage treatment, upland pot test; format: in vivo, Amaranthus retroflexus L.; settings: active ingredient 500 g/ha, observed 18th to 23rd day, 0 = non-treated, 100 = complete kill
rice (var. Nihonbare) = assay: Test Example 3: paddy pot test, transplanted rice; format: in vivo, Oryza sativa L.; settings: applied 4th day after transplantation, visually observed 21st day after application, 0 = non-treated, 100 = complete kill
How it was run: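 Rice (2-leaf stage) was transplanted 3 cm deep into puddled, leveled paddy soil under 3–4 cm flooding. On day 4 after transplanting, diluted wettable powder or emulsifiable concentrate was pipetted onto the water at a predetermined active-ingredient dose. Growth control (0 = untreated, 100 = complete kill) was scored visually 21 days later.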

barnyardgrass [11] = assay: Test Example 3: paddy pot test, application under submerged conditions; format: in vivo, Echinochloa crus-galli L.; settings: submerged application at 0.5 leaf stage, visually observed 14 days after application, 0 = non-treated, 100 = complete kill
How it was run: (§3)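 After sowing seeds and planting wapato tubers in flooded paddy soil, an aqueous dilution of the formulated compound was added to the 3–4 cm flood water at early leaf stage. Percent growth control relative to the untreated plot was assessed visually on day 14.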

barnyardgrass [12] = assay: Test Example 1: foliage treatment, upland pot test; format: in vivo, Echinochloa crus-galli L.; settings: active ingredient 500 g/ha, observed 18th to 23rd day, 0 = non-treated, 100 = complete kill
How it was run: as §2

corn [13] = assay: Test Example 1: foliage treatment, upland pot test; format: in vivo, Zea mays L.; settings: crop, active ingredient 500 g/ha, observed 18th to 23rd day, 0 = non-treated, 100 = complete kill
How it was run: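 In this upland pot foliage test, corn plants at 2.1 to 3.2 leaf stages were sprayed by a small size sprayer. The spray was a conventionally formulated wettable powder or emulsifiable concentrate weighed to a set active ingredient amount, diluted in water at 500 L/ha, plus 0.1% (v/v) agricultural spreader. Visual assessment on days 18 to 23 gave growth controlling degree (%), where 0 equals untreated and 100 means complete kill.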

japanese ribbon wapato = assay: Test Example 3: paddy pot test, application under submerged conditions; format: in vivo, Sagittaria pygniaea; settings: submerged application at primary leaf stage, visually observed 14 days after application, 0 = non-treated, 100 = complete kill
How it was run: as §3

japanese bulrush = assay: as above; format: in vivo, Scirpus juncoides; settings: submerged application at 0.5 leaf stage, visually observed 14 days after application, 0 = non-treated, 100 = complete kill
How it was run: as §3

soybean [14] = assay: Test Example 2: soil surface treatment, upland pot test; format: in vivo, Glycine max Merr.; settings: active ingredient 500 g/ha, observed 20th to 28th day
How it was run: as §1

velvetleaf [15] = assay: as above; format: in vivo, Abutilon theophrasti MEDIC.; settings: active ingredient 500 g/ha, observed 20th to 28th day
How it was run: as §1

green foxtail [16] = assay: Test Example 1: foliage treatment, upland pot test; format: in vivo, Setaria viridis L.; settings: active ingredient 500 g/ha, observed 18th to 23rd day, 0 = non-treated, 100 = complete kill
rice [17] = assay: Test Example 2: soil surface treatment, upland pot test; format: in vivo, Oryza sativa L.; settings: active ingredient 500 g/ha, observed 20th to 28th day
How it was run: as §1

prickly sida [18] = assay: Test Example 1: foliage treatment, upland pot test; format: in vivo, Sida spinosa L.; settings: active ingredient 500 g/ha, observed 18th to 23rd day, 0 = non-treated, 100 = complete kill
crabgrass [19] = assay: Test Example 1: foliage treatment, upland pot test; format: in vivo, Digitaria sanguinalis L.; settings: active ingredient 500 g/ha, observed 18th to 23rd day, 0 = non-treated, 100 = complete kill

Compound	Growth controlling degree (%) Corn (corn [1]) [%]	Growth controlling degree (%) Rice (rice [2]) [%]	Growth controlling degree (%) Crabgrass (crabgrass [3]) [%]	Growth controlling degree (%) Redroot pigweed (redroot pigweed [4]) [%]	Growth controlling degree (%) Soybean (soybean [5]) [%]	Growth controlling degree (%) Prickly sida (prickly sida [6]) [%]	Growth controlling degree (%) Barnyardgrass (barnyardgrass [7]) [%]	Growth controlling degree (%) Velvetleaf (velvetleaf [8]) [%]	Growth controlling degree (%) Green foxtail (green foxtail [9]) [%]	Growth controlling degree (%) Redroot pigweed (redroot pigweed [10]) [%]	Growth controlling degree (%) Rice (rice (var. Nihonbare); active ingredient 250 g/ha) [%]	Growth controlling degree (%) Barnyardgrass (barnyardgrass [11]; active ingredient 250 g/ha) [%]	Growth controlling degree (%) Barnyardgrass (barnyardgrass [12]) [%]	Growth controlling degree (%) Corn (corn [13]) [%]	Growth controlling degree (%) Soyabean (soybean [14]) [%]	Growth controlling degree (%) Velvetleaf (velvetleaf [15]) [%]	Growth controlling degree (%) Green foxtail (green foxtail [16]) [%]	Growth controlling degree (%) Rice (rice [17]) [%]	Growth controlling degree (%) Prickly sida (prickly sida [18]) [%]	Growth controlling degree (%) Crabgrass (crabgrass [19]) [%]	further results
CCC(=O)N(C)C(c1cnccc1C(F)(F)F)C(C)C (stereo not drawn) [I-163]	60	80	100	70	80	95	100	70	100	80	60	100	90	90	40	90	90	50	80	98	Growth controlling degree (%) Japanese ribbon wapato (japanese ribbon wapato; active ingredient 250 g/ha): 90%; Growth controlling degree (%) Japanese bulrush (japanese bulrush; active ingredient 250 g/ha): 99%
CC(C)C(c1cnccc1C(F)(F)F)N(C)C(=O)CC1CCCC1 (stereo not drawn) [I-165]	20	10	100	80	80	70	100	80	100	70	10	98	80	40	20	50	70	10	80	95	Growth controlling degree (%) Japanese ribbon wapato (japanese ribbon wapato; active ingredient 250 g/ha): 60%; Growth controlling degree (%) Japanese bulrush (japanese bulrush; active ingredient 250 g/ha): 98%
CC(C)C(c1cnccc1C(F)(F)F)N(C)C(=O)C=Cc1ccc(Br)cc1 (stereo not drawn) [I-178]	10	40	98	40	60	30	90	95	100	70	–	–	50	10	0	40	60	40	95	60	Growth controlling degree (%) Rice (rice (var. Nihonbare); active ingredient 500 g/ha): 0%; Growth controlling degree (%) Barnyardgrass (barnyardgrass [11]; active ingredient 500 g/ha): 98%; Growth controlling degree (%) Japanese ribbon wapato (japanese ribbon wapato; active ingredient 500 g/ha): 40%; Growth controlling degree (%) Japanese bulrush (japanese bulrush; active ingredient 500 g/ha): 95%
